Source: US20190209567A1, “A Specific Trifluoroethyl Quinoline Analogue For Use In The Treatment of APDS” (UCB Biopharma SPRL, priority 2016, published 2019)
Read-outs that look alike come from different tables or passages of the source.

Legend:
[1] = APD001 Phase 1b open-label 12-week clinical study in APDS1 and APDS2 patients; format: in vivo, human; conditions: 12 weeks of treatment
Description: APD001 is an ongoing Phase 1b, multicentre, open-label, 12-week study to assess the efficacy, safety and tolerability of Compound (A) in male and female adolescents (aged from 12 to 18 years) and adults with APDS1 and APDS2.

[2] = tested on: pAKT^S473 (PI3K signalling) in T cell lymphoblasts; assay: pAKT^S473 expression in T cell lymphoblast cultures by flow cytometry, with and without OKT3 activation; format: cell-based, human; conditions: for IC50: Homo sapiens, T-cell
Procedure: (§1) The activity of N—{(R)-1-[8-Chloro-2-(1-oxypyridin-3-yl)quinolin-3-yl]-2,2,2-trifluoroethyl}pyrido[3,2-d]pyrimidin-4-ylamine [hereinafter referred to as “Compound (A)”] on PI3K signalling was assessed by measuring levels of either phosphorylated serine 473 of AKT (pAKT^S473) or phosphorylated serine 235/236 of ribosomal protein S6 (pS6^S235/236) using flow cytometry. The results obtained are depicted in the accompanying drawings, in which:
Analysis of phosphorylated AKT at Ser 473 (pAKT^S473) levels in T cell lymphoblast cultures by flow cytometry was performed with peripheral blood lymphocytes from healthy donors, and from APDS1 and APDS2 patients, with and without T cell receptor activation.
Generation of T cell lymphoblasts was performed in accordance with the method described by M-C. Deau et al. in J. Clin. Invest., 2014, 124, 3923-3928. In brief, peripheral blood mononuclear cells were isolated by Ficoll-Paque density gradient centrifugation (Pharmacia Biotech; catalogue no. #171-44003) and washed twice with RPMI 1640 GlutaMax medium (Invitrogen). T cell lymphoblasts were obtained by stimulating 1×10^6 cells per mL in RPMI 1640 GlutaMax medium supplemented with 10% human AB serum, penicillin/streptomycin (Invitrogen), PMA (phorbol 12-myristate 13-acetate; 20 ng/mL; Sigma-Aldrich) and ionomycin (1 μmol/L). After 2 to 3 days of activation, viable cells were separated by Ficoll-Paque density-gradient centrifugation and washed twice with RPMI 1640 GlutaMax medium, then cultured in RPMI 1640 GlutaMax medium supplemented with 10% human AB serum and 100 U/mL pro-IL2.
Analysis of phosphorylated AKT at Ser 473 levels in T cell lymphoblast cultures was performed once sufficient cells were available for the analysis (e.g. 6-12 days after starting the culture with pro-IL2).
The activity of Compound (A) was assessed in (i) the absence or (ii) the presence of T cell activation by receptor cross-linking with OKT3:
(i) Incubation of APDS1 and APDS2 patient cells for 30 minutes with Compound (A) at different concentrations (0, 1, 3, 10, 30, 100 and 200 nM). A positive control for pAKT staining (simulated cells with OKT3) was included (8×10^6 cells/patient).
(ii) Incubation of APDS1 and APDS2 patient cells for 30 minutes with Compound (A) at different concentrations (0, 1, 3, 10, 30, 100 and 200 nM) stimulated with anti-CD3 (OKT3; T cell receptor activation).
Corresponding assays were performed with T cell lymphoblasts derived from healthy donors (CTRL).

[3] = tested on: pS6^S235/236 (PI3K signalling) in T cell subsets in whole blood; assay: Ex vivo pS6^S235/236 expression in T cell subsets in whole blood by flow cytometry; format: cell-based, human; conditions: for IC50: Homo sapiens, T-cell
Procedure: as §1
The levels of pS6^S235/236 in different T cell (CD3+CD4+; CD3+CD8+) subsets in total blood from healthy donors, and from APDS1 and APDS2 patients, were analyzed by flow cytometry. The blood was incubated ex vivo for 45 minutes at 37° C. with different doses of Compound (A) (0, 10, 30, 100, 300, 1000 and 2000 nM).
The phosphorylation of ribosomal protein S6 at Ser 235/236 (pS6^S235/236) in cells from healthy donors, and from APDS1 and APDS2 patients, was analyzed ex vivo in the presence and absence of Compound (A) (10-2000 nM) in different T cell (CD3+CD4+; CD3+CD8+) subsets. As noted above, total blood was incubated ex vivo for 45 minutes at 37° C.
Data were generated with blood from two (2) healthy donors, three (3) APDS1 patients and one (1) APDS2 patient.

- IC50 ([2]; APDS1 and APDS2 patient-derived T cell lymphoblasts, absence of T cell activation by OKT3, read-out: IC50 range, pAKT expression): 0.003 to 0.02 µM
- IC50 ([2]; APDS1 and APDS2 patient-derived T cell lymphoblasts, presence of T cell activation by OKT3, read-out: IC50 range, pAKT expression): 0.007 to 0.05 µM
- IC50 ([2]; T lymphoblasts from 3 APDS1 patients, OKT3 +, read-out: Geomean IC50, inhibition of pAKT^S473 expression): 0.021 µM
- IC50 ([2]; T lymphoblasts from 3 APDS1 patients, OKT3 +, read-out: Range of IC50, inhibition of pAKT^S473 expression): 0.007 to 0.05 µM
- IC50 ([2]; T lymphoblasts from 3 APDS1 patients, OKT3 −, read-out: Geomean IC50, inhibition of pAKT^S473 expression): 0.008 µM
- IC50 ([2]; T lymphoblasts from 3 APDS1 patients, OKT3 −, read-out: Range of IC50, inhibition of pAKT^S473 expression): 0.003 to 0.012 µM
- IC50 ([2]; T lymphoblasts from 3 APDS2 patients, OKT3 +, read-out: Geomean IC50, inhibition of pAKT^S473 expression): 0.028 µM
- IC50 ([2]; T lymphoblasts from 3 APDS2 patients, OKT3 +, read-out: Range of IC50, inhibition of pAKT^S473 expression): 0.021 to 0.033 µM
- IC50 ([2]; T lymphoblasts from 3 APDS2 patients, OKT3 −, read-out: Geomean IC50, inhibition of pAKT^S473 expression): 0.013 µM
- IC50 ([2]; T lymphoblasts from 3 APDS2 patients, OKT3 −, read-out: Range of IC50, inhibition of pAKT^S473 expression): 0.008 to 0.02 µM
- IC50 ([3]; CD3+ and CD8+ cells, one APDS2 patient, based on concentration-response curves, read-out: IC50, inhibition of pS6^S235/236 expression): ≤ 0.1 µM
- IC50 ([3]; CD3+ cells, 3 APDS1 patients, read-out: Geomean IC50 (adjusted for free concentration), pS6^S235/236 expression): 0.051 µM
- IC50 ([3]; CD3+ cells, 3 APDS1 patients, read-out: Range of IC50 (adjusted for free concentration), pS6^S235/236 expression): 0.036 to 0.067 µM
- IC50 ([3]; CD4+ cells, 3 APDS1 patients, read-out: Geomean IC50 (adjusted for free concentration), pS6^S235/236 expression): 0.041 µM
- IC50 ([3]; CD4+ cells, 3 APDS1 patients, read-out: Range of IC50 (adjusted for free concentration), pS6^S235/236 expression): 0.029 to 0.056 µM
- IC50 ([3]; CD8+ cells, 3 APDS1 patients, read-out: Geomean IC50 (adjusted for free concentration), pS6^S235/236 expression): 0.056 µM
- IC50 ([3]; CD8+ cells, 3 APDS1 patients, read-out: Range of IC50 (adjusted for free concentration), pS6^S235/236 expression): 0.04 to 0.072 µM
SMILES: [O-][n+]1cccc(-c2nc3c(Cl)cccc3cc2[C@@H](Nc2ncnc3cccnc23)C(F)(F)F)c1 [Compound (A), N—{(R)-1-[8-Chloro-2-(1-oxypyridin-3-yl)quinolin-3-yl]-2,2,2-trifluoroethyl}pyrido[3,2-d]pyrimidin-4-ylamine]
- Tolerability ([1]; APDS patients): well tolerated
- Clinical outcome ([1]; three APDS patients): some clinical and immunological improvements together with disease activity improvement
- IC50 ([2]; T lymphoblasts from 3 healthy donors, OKT3 +, read-out: Geomean IC50, inhibition of pAKT^S473 expression): 0.016 µM
- IC50 ([2]; T lymphoblasts from 3 healthy donors, OKT3 +, read-out: Range of IC50, inhibition of pAKT^S473 expression): 0.009 to 0.05 µM
- Inhibition of pAKT^S473 expression (in words) ([2]; basal and activated T lymphoblast cultures): potently inhibited
- Inhibition of pS6^S235/236 expression (in words) ([3]; CD3+ and CD8+ cells, one APDS2 patient): showed potent inhibition
- Inhibition of pS6^S235/236 signal (in words) ([3]; three T cell subsets, three APDS1 patients): showed inhibition
